Results taken from patent US9061009B2, “Mixed lineage kinases and metabolic disorders” (University of Massachusetts, priority 2007, dated 2015).

Experiments:
[1] = Development of insulin resistance in mice fed a high fat diet; assay type: in vivo; conditions: male mice, high fat diet 16 weeks; s.c. 0.5 or 2.5 mg/kg twice per day; vs control treatment
Procedure: The effects of the MLK inhibitor CEP-1347 on development of insulin resistance in mice is determined. Male mice are fed a high fat diet ad libitum (Diet F3282, Bio-Serv, Frenchtown, N.J.) or a standard diet for 16 weeks, with each group administered CEP-1347 subcutaneously (s.c.) at a dose of 0.5 or 2.5 mg/kg or vehicle control, twice per day. Body mass is recorded weekly, and blood samples are collected from the tail vain after an overnight fast after 6, 12, and 16 weeks on the diet. Blood glucose concentrations are measured with a DEX® glucometer (Bayer, Tarrytown, N.Y.), and plasma insulin is measured by ELISA kit for rat insulin (Crystal Chem, Downers Grove, Ill.). Glucose tolerance tests are performed by i.p. administration of glucose (1.8 g/kg) and measurement of blood glucose at t=15, 30, 60, 90, and 120 minutes in 16-week-old mice. Insulin tolerance tests are done similarly except with the injection of human insulin (1 unit per kg; Lilly Research Laboratories, Indianapolis). Untreated animals fed the high fat diet display hyperinsulinemia, hyperglycemia, decreased insulin sensitivity, and impaired glucose disposal.

[2] = Established insulin resistance in ob/ob mice; assay type: in vivo; conditions: s.c. 0.5 or 2.5 mg/kg twice per day for two weeks, vs vehicle control
Procedure: The effects of the MLK inhibitor CEP-1347 to alleviate established insulin resistance in mice is determined. Ten-week old ob/ob mice (Jackson Laboratory, Bar Harbor, Me.) are obese and display hyperinsulinemia, hyperglycemia, decreased insulin sensitivity, and impaired glucose disposal. Such mice are administered CEP-1347 subcutaneously (s.c.) at a dose of 0.5 or 2.5 mg/kg or vehicle control, twice per day for two weeks. Blood glucose concentrations are measured with a DEX® glucometer (Bayer, Tarrytown, N.Y.), and plasma insulin is measured by ELISA kit for rat insulin (Crystal Chem, Downers Grove, Ill.). Following day 14 of the treatment, glucose tolerance tests are performed by i.p. administration of glucose (1.8 g/kg) and measurement of blood glucose at t=15, 30, 60, 90, and 120 minutes. Insulin tolerance tests are performed similarly except with the injection of human insulin (1 unit per kg; Lilly Research Laboratories, Indianapolis).

JNK = assay: FFA-stimulated JNK activation in MEF (in vitro kinase assay with cJun / immunoblot); assay type: cell-based, mouse
Procedure: MEF and HEK293 cells (American Type Culture Collection) were cultured in Dulbecco's modified Eagle's medium (DMEM) supplemented with 10% fetal bovine serum (Invitrogen, Carlsbad, Calif.). […] Sodium salts of fatty acids (Sigma-Aldrich, St. Louis, Mo.) were dissolved in PBS and mixed with free fatty acid (FFA)-free BSA (Roche). Stearic acid (Sigma-Aldrich, St. Louis, Mo.) was dissolved in ethanol and added to serum-free DMEM supplemented with 2% FFA-free BSA. After 1 hour incubation in serum-free DMEM, cells were treated with 0.5 mM fatty acid/0.5% BSA for 1-16 hours at 37° C.
Protein extracts were prepared using lysis buffer [20 mM Tris™ buffer (pH 7.4), 1% Triton™ X-100 detergent, 10% glycerol, 137 mM NaCl, 2 mM EDTA, 25 mM β-glycerophosphate, 1 mM sodium orthovanadate, 1 mM phenylmethylsulfonyl fluoride, and 10 μg/mL of aprotinin and leupeptin]. Extracts (50 μg of protein) were examined by immunoblot analysis with antibodies obtained from Cell Signaling (MLK3, phosphoThr277, Ser281-MLK3, ERK, phospho-ERK, p38, phospho-p38, AKT, phosphoSer473-AKT, PKCα, PKCδ, phospho-T-loop-PKC, and phospho-JNK), Transduction Labs (PKCε), PharMingen (JNK), Sigma (α-Tubulin), and Upstate Biotechnology (IRS1, phosphoSer307-IRS1 and phospho-MKK7). JNK activity was measured in an in vitro kinase assay using [γ-^32P]ATP and cJun as substrates (Whitmarsh and Davis, 2001, Methods Enzymol., 332:319-336). […]

[3] = test system: diacylglycerol-responsive PKC isoforms (α, δ, and ε); assay: Down-regulation of PKC isoforms in MEF by phorbol ester; assay type: cell-based, mouse; conditions: 1 μM, 24 hours
Procedure: FIG. 7C is a set of nine gels depicting expression of PKCα, PKCδ, PKCε, MLK3, phospho-MLK3 (MLK3-P), JNK, and Tubulin and in vitro kinase activity (KA) on cJun (cJun-P) of PKGζ^−/− MEF pretreated with 1 μM TPA for 24 hours and then treated with 0.5 mM palmitate for 16 hours.
To test the requirement of PKC for FFA-stimulated MLK3 and JNK activation, the effect of PKC down-regulation was examined. In initial studies, siRNA was used to down-regulate the PKC isoforms expressed in MEF (PKCα, PKCδ, PKCε, and PKCζ). Down-regulation of individual PKC isoforms caused no change in FFA-induced MLK3 or JNK activation. […] Efficient simultaneous down-regulation of multiple PKC isoforms using siRNA was not obtained. An alternative approach was therefore used to obtain MEF lacking multiple PKC isoforms. […] The effect of pan-PKC deficiency was therefore examined by treating Pkcζ^−/− MEF with TPA (FIG. 7C).

MLK3 = MLK3 T-loop (Thr-277, Ser-281) phosphorylation immunoblot in MEF; assay type: cell-based, mouse; conditions: MEF pretreated with phorbol ester, then FFA
Procedure: Wild-type, Mkk4^−/−, Mkk7^−/−, and Mkk4^−/− Mkk7^−/− MEF (Tournier et al., 2001, Genes Dev., 15:1419-1426) and wild-type and Mlk3^−/− MEF have been previously described (Brancho et al., 2005, Mol. Cell. Biol., 25:3670-3681). Wild-type and Pkcζ^−/− MEF have also been described (Leitges et al., 2001, Mol. Cell, 8:771-780). MEF and HEK293 cells (American Type Culture Collection) were cultured in Dulbecco's modified Eagle's medium (DMEM) supplemented with 10% fetal bovine serum (Invitrogen, Carlsbad, Calif.). HEK293 cells were transfected with Lipofectamine™ transfection reagent (Invitrogen, Carlsbad, Calif.). Sodium salts of fatty acids (Sigma-Aldrich, St. Louis, Mo.) were dissolved in PBS and mixed with free fatty acid (FFA)-free BSA (Roche). Stearic acid (Sigma-Aldrich, St. Louis, Mo.) was dissolved in ethanol and added to serum-free DMEM supplemented with 2% FFA-free BSA. […]
Protein extracts were prepared using lysis buffer [20 mM Tris™ buffer (pH 7.4), 1% Triton™ X-100 detergent, 10% glycerol, 137 mM NaCl, 2 mM EDTA, 25 mM β-glycerophosphate, 1 mM sodium orthovanadate, 1 mM phenylmethylsulfonyl fluoride, and 10 μg/mL of aprotinin and leupeptin]. […] JNK activity was measured in an in vitro kinase assay using [γ-^32P]ATP and cJun as substrates (Whitmarsh and Davis, 2001, Methods Enzymol., 332:319-336). […]

CCSCc1ccc2c(c1)c1c3c(c4c5cc(CSCC)ccc5n5c4c1n2[C@H]1C[C@](O)(C(=O)OC)[C@]5(C)O1)CNC3=O [CEP-1347]
hyperinsulinemia, hyperglycemia, decreased insulin sensitivity, impaired glucose disposal [1]: decreases these symptoms | hyperinsulinemia and hyperglycemia [2]: decreases hyperinsulinemia and hyperglycemia | insulin and glucose tolerance [2]: at least partially restores insulin and glucose tolerance

CCCCCCCCCCCCCC(=O)O[C@@H]1[C@@H](C)[C@@]2(O)[C@@H](C=C(CO)C[C@]3(O)C(=O)C(C)=C[C@@H]23)[C@@H]2C(C)(C)[C@]12OC(C)=O [TPA, Phorbol-12-Myristate-13-Acetate]
effect on FFA-induced JNK activation (JNK; MEF pretreated with phorbol ester, then FFA): did not affect | down-regulation of PKC isoforms [3]: caused down-regulation of diacylglycerol-responsive PKC isoforms (α, δ, and ε) | effect on FFA-induced MLK3 activation (MLK3): did not affect

CCCCCCCCCCCCCCCCCC(=O)O [stearate, stearic acid]
JNK activation (JNK; MEF, 0.5 mM FFA, 16 hours): resulted in JNK activation
